A short description of test [1]: HPDE-C7 pancreatic duct cell viability loss – fluorescence, HTS (AID 430). In kind it is functional, cell-based. As to conditions: Homo sapiens.
For the next test, the target named is Paired box protein Pax-8 (Homo sapiens, UniProt Q06710). The test is described as follows: PAX8 transcriptional activity inhibition in RMG-I – RMG-I cells, luciferase, cherry-pick, dose response (AID 687027).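 Further: luciferase reporter driven by Pax8 target thyroperoxidase promoter measured by SteadyGlo luminescence.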 The test is classed as functional, cell-based.
Paired box protein Pax-8, sequence (Q06710 whole entry): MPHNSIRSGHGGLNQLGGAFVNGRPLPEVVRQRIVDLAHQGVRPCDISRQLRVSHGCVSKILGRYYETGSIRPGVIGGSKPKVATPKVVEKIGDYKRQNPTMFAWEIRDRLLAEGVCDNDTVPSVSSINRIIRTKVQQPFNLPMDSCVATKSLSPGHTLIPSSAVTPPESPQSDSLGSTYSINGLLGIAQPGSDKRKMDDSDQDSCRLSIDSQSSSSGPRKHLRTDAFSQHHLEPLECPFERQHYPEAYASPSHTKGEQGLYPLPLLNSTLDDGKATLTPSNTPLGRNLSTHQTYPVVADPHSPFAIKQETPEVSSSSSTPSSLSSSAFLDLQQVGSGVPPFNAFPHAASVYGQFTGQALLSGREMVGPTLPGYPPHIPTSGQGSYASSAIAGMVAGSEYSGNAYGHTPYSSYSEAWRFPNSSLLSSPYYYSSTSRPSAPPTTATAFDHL
Another test relates to HT-1080. The test is described as follows: HT1080 cell viability loss – fluorescence readout (AID 620). In kind it is functional, cell-based. To be noted: Homo sapiens.
Test [2] deals with Luciferin 4-monooxygenase (Photinus pyralis, UniProt P08659). As to the kind of experiment: Counter Screen for Luciferase-based Assay Positives. [Related pubchem assays: 620, 618, 411 ].
The target of test [3] is Neurotensin receptor type 1 (Homo sapiens, UniProt P30989). In kind it is functional.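 Further: Image-based confirmatory dose-response assay measuring agonist activity at NTR1; NTR1-expressing U2OS osteosarcoma cells imaged for beta-arrestin GFP spot formation; agonist potency where compounds increase beta-arrestin recruitment.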
Neurotensin receptor type 1, sequence (P30989 whole entry): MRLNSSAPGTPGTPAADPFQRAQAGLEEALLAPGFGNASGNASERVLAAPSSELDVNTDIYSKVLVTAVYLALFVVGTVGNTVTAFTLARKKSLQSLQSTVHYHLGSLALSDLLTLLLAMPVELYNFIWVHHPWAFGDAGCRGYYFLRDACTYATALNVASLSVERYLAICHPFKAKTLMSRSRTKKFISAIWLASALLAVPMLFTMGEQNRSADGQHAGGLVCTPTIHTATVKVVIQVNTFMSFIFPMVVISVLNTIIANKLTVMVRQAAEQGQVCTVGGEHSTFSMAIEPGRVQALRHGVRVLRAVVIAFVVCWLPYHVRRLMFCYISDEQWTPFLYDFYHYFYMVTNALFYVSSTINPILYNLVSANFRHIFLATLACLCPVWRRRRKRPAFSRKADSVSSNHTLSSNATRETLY
A short description of test [4]: viability loss of HPDE-C7K cells – cell-based, fluorescence, HTS, primary screen (AID 431). The test is classed as functional. As to conditions: Homo sapiens.
Test [5] has as its target T1, RNA-binding protein pos-1 (Caenorhabditis elegans, UniProt G5EF15).
T1 sequence (G5EF15 whole entry): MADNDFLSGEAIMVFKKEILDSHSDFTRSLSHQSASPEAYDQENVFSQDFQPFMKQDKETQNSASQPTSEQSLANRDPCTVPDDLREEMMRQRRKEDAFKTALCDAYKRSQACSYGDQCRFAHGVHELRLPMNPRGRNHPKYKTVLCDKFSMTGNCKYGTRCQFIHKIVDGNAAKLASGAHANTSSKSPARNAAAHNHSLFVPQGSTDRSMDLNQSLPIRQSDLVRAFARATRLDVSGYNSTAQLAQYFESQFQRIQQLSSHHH
The test is described as follows: disruptors of C. elegans POS-1 RNA interaction – biochemical, fluorescence polarization, dose response (AID 1964).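 Further: purified POS-1 fused to maltose binding protein made in E. coli; potency of compounds blocking POS-1 binding to fluorescent RNA.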 Background: In fluorescence polarisation assays a small probe gives low polarisation when free and higher when bound to something large.

The next test has as its target T2, Hexokinase HKDC1 (Homo sapiens, UniProt Q2TB90).
T2 sequence (Q2TB90 whole entry): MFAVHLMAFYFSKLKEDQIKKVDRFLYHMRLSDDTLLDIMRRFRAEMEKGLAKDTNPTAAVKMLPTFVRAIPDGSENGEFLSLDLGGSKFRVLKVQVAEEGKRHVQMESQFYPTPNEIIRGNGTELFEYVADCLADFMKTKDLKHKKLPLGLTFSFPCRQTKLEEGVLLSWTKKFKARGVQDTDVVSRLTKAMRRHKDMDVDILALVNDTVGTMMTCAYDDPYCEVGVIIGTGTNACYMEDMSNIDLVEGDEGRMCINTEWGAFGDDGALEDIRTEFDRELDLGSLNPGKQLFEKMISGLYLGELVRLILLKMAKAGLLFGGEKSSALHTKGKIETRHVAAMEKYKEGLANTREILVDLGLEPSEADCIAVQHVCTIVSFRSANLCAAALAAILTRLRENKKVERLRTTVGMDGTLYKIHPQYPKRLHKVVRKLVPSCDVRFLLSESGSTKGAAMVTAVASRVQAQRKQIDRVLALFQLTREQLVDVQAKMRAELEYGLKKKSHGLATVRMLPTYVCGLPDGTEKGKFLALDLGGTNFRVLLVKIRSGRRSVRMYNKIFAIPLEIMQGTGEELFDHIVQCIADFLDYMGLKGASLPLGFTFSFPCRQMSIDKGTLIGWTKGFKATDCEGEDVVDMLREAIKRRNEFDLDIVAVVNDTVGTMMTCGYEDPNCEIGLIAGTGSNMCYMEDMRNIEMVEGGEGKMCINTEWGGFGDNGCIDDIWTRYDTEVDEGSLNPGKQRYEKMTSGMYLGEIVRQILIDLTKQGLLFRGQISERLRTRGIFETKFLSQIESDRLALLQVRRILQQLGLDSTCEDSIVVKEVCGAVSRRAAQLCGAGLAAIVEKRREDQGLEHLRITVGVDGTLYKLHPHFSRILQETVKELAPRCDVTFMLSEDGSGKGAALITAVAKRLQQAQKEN
The test is described as follows: inhibition of HKDC1 glucose phosphorylation – biochemical, W721R variant, dose response (AID 504729). The test is classed as functional.

Test [6] concerns the target T3, Zinc finger protein mex-5 (Caenorhabditis elegans, UniProt Q9XUB2).
T3 sequence (Q9XUB2 whole entry): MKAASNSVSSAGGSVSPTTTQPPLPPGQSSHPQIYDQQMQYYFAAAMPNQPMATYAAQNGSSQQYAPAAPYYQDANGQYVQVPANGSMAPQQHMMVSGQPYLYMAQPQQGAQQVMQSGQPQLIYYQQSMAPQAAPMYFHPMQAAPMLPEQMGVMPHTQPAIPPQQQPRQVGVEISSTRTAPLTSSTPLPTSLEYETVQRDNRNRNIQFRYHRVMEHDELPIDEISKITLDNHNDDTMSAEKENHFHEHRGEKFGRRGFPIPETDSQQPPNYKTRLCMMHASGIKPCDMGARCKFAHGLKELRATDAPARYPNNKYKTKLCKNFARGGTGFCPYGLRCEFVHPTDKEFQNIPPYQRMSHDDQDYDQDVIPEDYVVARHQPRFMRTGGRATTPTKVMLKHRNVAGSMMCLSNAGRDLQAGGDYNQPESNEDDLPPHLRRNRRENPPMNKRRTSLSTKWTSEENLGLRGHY
As to the kind of experiment: potency of MEX-5 RNA-binding blockers – biochemical, C. elegans, fluorescence polarization, dose response (AID 1960).

Test [7] addresses Glucose-6-phosphate 1-dehydrogenase (Homo sapiens, UniProt P11413). The test is described as follows: inhibition of Homo sapiens G6PD, dose series – biochemical, fluorescence, selectivity assay for P. falciparum G6PD inhibitor project, dose response (AID 504792). In kind it is functional.
The target in test [8] is T4, Polyadenylate-binding protein 1 (Homo sapiens, UniProt P11940). As to the kind of experiment: MLLE domain peptide-binding blockers, IC50 – biochemical, fluorescence polarization, FITC-PAM2 peptide, dose response (AID 602259). As to conditions: read-out: IC50_Mean. The test is classed as functional.
T4 sequence (P11940 whole entry, the tested form may be a part): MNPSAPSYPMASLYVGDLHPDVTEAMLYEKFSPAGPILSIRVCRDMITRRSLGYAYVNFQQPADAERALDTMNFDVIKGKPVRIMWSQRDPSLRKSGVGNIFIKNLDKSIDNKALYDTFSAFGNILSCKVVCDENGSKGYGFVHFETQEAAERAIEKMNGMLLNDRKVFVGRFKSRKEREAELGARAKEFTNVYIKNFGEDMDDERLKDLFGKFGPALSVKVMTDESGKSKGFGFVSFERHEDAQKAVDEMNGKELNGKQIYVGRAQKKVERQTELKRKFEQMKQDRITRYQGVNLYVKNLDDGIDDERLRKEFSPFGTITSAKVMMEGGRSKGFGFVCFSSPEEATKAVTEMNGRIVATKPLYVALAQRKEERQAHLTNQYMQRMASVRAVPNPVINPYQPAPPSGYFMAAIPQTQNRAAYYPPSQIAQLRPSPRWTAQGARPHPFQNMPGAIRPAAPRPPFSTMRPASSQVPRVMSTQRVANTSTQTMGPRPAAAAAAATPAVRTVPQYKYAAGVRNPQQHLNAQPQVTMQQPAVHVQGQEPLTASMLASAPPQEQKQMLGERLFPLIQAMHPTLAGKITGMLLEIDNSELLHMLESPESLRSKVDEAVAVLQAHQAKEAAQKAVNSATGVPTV
Test [9] has as its target T4, Polyadenylate-binding protein 1. As to the kind of experiment: MLLE binding blockers, Cy5 peptide tracer – biochemical, fluorescence polarization, Cy5-PAM2 peptide, secondary, miRNA deadenylation inhibitor project, dose response (AID 602260). To be noted: read-out: IC50_Mean. In kind it is functional.
For test [10], the target named is T5, Scavenger receptor class B member 1 (Mus musculus, UniProt Q61009).
T5 sequence (Q61009 whole entry): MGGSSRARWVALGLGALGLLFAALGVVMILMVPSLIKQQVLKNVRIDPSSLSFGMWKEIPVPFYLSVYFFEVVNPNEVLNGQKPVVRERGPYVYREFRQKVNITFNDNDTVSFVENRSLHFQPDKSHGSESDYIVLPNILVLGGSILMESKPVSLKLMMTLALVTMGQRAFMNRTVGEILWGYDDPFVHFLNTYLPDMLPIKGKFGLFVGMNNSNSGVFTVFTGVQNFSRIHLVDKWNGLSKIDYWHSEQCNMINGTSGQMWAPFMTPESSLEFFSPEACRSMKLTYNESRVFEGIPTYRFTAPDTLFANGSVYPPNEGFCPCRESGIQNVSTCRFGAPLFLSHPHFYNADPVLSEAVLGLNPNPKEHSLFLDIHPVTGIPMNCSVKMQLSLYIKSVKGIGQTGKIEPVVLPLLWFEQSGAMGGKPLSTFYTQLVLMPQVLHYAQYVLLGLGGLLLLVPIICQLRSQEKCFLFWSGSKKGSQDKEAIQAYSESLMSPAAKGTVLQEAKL
The test is described as follows: mouse SR-BI DiI-HDL uptake blockers – ldlA[mSR-BI] cells, fluorescence, cherry pick, dose response (AID 493194).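 Further: cellular uptake of fluorescent DiI-labeled HDL measured as cell fluorescence.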 In kind it is functional, cell-based.

Test [11] concerns the target Voltage-gated N-type calcium channel alpha-1B subunit/Amyloid beta A4 precursor protein-binding family A member 1 (Homo sapiens, UniProt Q00975+Q02410). As to the kind of experiment: disruptors of Mint-PDZ/N-type channel peptide interaction – biochemical, HTRF, set 2, SAR follow-up (AID 434980). In kind it is functional. Background: TR-FRET usually uses a lanthanide donor and a delayed reading to cut background.

Data on 4 molecules can be found in ChEMBL document CHEMBL1201862, “PubChem BioAssay data set” (2004).

Active and inactive are the calls of the source. Some results are limits rather than exact numbers.

Voltage-gated N-type calcium channel alpha-1B subunit/Amyloid beta A4 precursor protein-binding family A member 1, sequence (Q00975 whole entry): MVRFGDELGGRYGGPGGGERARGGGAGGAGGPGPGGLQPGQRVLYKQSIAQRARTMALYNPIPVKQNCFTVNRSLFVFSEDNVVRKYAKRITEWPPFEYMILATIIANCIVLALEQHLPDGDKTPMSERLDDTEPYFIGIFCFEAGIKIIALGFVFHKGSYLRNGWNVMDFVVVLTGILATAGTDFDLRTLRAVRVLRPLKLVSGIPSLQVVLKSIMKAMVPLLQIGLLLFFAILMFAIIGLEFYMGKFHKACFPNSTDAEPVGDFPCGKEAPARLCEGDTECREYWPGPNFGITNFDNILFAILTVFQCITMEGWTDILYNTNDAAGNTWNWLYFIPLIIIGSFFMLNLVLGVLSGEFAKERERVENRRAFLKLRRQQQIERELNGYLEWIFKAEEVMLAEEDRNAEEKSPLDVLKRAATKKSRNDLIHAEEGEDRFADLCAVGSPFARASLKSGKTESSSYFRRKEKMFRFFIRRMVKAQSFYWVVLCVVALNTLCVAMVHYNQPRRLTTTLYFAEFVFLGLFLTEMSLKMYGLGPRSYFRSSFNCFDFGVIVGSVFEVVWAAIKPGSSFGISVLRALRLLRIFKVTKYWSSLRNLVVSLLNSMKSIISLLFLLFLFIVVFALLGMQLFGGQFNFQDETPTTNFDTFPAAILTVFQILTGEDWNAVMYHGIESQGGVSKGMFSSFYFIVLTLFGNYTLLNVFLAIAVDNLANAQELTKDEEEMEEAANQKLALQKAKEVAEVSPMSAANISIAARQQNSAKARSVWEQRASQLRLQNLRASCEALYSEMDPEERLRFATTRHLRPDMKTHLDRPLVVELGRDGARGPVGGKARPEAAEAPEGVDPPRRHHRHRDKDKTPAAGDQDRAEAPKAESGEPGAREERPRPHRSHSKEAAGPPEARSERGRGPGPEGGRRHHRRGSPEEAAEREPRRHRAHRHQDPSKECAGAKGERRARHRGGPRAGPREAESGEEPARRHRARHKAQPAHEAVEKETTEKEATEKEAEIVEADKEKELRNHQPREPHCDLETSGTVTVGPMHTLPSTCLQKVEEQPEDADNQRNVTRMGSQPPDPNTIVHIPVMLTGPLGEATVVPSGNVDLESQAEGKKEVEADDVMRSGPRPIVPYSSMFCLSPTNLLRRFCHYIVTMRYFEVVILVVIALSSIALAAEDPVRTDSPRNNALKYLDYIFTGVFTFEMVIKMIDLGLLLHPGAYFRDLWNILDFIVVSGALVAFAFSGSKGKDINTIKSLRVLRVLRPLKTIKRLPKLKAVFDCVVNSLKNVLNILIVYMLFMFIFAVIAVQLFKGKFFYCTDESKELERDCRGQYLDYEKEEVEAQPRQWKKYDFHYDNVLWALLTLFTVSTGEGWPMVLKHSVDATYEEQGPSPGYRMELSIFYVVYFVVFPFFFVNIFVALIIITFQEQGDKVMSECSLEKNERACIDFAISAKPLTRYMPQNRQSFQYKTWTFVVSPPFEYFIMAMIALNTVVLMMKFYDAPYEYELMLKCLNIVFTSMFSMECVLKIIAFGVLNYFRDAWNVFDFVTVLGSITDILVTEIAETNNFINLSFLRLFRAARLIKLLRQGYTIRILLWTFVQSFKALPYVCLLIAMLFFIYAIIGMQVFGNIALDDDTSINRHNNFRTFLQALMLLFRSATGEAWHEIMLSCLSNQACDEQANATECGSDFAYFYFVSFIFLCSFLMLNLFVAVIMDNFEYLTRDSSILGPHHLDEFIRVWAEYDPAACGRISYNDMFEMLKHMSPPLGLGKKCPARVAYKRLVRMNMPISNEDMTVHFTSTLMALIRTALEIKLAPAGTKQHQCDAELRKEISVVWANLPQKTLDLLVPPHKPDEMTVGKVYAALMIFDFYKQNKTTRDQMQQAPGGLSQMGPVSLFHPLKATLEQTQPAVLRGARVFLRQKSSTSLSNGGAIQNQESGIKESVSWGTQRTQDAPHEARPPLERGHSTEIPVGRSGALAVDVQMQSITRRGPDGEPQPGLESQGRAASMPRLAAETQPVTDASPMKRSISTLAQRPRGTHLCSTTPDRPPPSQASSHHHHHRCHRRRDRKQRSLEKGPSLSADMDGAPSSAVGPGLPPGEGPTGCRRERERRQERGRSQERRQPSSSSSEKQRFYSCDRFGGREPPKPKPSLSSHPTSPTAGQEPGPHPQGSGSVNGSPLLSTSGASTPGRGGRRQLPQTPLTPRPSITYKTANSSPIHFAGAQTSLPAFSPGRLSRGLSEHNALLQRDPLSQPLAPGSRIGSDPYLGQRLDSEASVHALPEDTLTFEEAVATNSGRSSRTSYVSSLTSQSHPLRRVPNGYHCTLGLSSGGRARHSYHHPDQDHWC
Voltage-gated N-type calcium channel alpha-1B subunit/Amyloid beta A4 precursor protein-binding family A member 1, sequence (Q02410 whole entry): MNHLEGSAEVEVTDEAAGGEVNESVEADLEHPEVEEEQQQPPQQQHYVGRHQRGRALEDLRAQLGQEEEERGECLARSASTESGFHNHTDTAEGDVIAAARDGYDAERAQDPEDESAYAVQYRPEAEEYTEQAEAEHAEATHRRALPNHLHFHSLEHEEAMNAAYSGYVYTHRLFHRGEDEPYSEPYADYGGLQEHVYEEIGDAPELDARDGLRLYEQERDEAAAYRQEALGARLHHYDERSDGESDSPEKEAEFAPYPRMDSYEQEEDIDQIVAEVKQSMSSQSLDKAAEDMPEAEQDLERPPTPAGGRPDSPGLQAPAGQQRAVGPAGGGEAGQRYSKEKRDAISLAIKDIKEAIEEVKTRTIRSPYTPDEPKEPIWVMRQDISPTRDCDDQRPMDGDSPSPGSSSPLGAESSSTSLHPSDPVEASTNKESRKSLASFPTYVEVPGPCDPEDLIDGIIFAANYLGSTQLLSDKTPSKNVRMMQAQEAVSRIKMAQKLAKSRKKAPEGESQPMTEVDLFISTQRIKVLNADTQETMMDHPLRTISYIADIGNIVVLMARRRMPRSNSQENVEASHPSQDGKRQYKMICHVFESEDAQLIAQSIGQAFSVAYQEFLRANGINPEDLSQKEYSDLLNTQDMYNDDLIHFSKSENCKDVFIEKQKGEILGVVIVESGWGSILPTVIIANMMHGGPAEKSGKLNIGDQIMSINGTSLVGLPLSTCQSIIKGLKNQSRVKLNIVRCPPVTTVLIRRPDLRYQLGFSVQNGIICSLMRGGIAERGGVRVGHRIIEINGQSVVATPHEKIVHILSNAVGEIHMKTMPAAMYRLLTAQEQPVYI

As for `Cc1ccc(-c2csc3ncnc(Sc4nnc(CN5CCCCCC5=O)o4)c23)cc1`, the concentration giving a half-maximal response (EC50) in test [1] is 1.78 µM (active); in the test on HT-1080, 20.1 µM (active); in test [2], 74 µM (active); in [3], 8.73 µM (active); in test [4], 2.1 µM (active). Moreover, the AC50 at Paired box protein Pax-8 is 5 µM (active).
On to `CN(C)Cc1cc(O)c(CN(C)C)cc1O`, for which the results for the EC50 in [5] and in [6] were 22.3 µM (inconclusive) and 5.82 µM (active), respectively. Also, the IC50 on Hexokinase HKDC1 was 49.6 µM (inactive); in test [7], 34.7 µM (inactive); in [8] it was 50.7 µM (inactive); in [9] it was > 66 µM (inactive).
On to `Cc1ccccc1CN1CCN(C(=O)c2ccc(S(=O)(=O)NCc3ccco3)cc2)CC1`, for which the AC50 in test [10] was 0.092 µM (active).
Take `O=C(c1cc(-c2ccco2)nc2ccccc12)N1CCC(N2CCOCC2)CC1`: the IC50 in test [11] is > 56.8 µM (inactive).

As usually defined, the EC50 is the midpoint of the concentration-response curve. A word on the AC50: it is the concentration at which the activity in the assay is half-maximal.
